Assays:
[1] = system: PAER (carbapenem-resistant Pseudomonas aeruginosa, CRPA); settings: imipenem control, 2 mg/kg, 3 doses
Experimental: In another study, mice (5 per group) were treated with varied doses of PIM 1 at 1 h, 4 h and 8 h post-infection with PAO1. Positive and negative control groups of mice were injected with 2 mg/kg of imipenem and same volume of PBS respectively, at the same time point. At the 12th hour, all mice were euthanized with peritoneal washes performed via injecting 3.0 mL of PBS into the intraperitoneal cavity followed by massaging the abdomen for 1 min. After which, approximately 1 mL of peritoneal fluid was recovered to calculating the CFU of bacteria, as well as for immune cells quantification.
For carbapenem-resistant Acinetobacter baumannii (CRAB) and carbapenem-resistant Pseudomonas aeruginosa (CRPA) septicemia protection model, similar procedure was conducted with care and 5% mucin was injected together with the bacteria to have the mice immunocompromised (resulting in similar conditions as hospitalised patients).

[2] = system: AB-1 (carbapenem-resistant Acinetobacter baumannii, CRAB); settings: imipenem control, 2 mg/kg × 3 doses
Experimental: In another study, mice (5 per group) were treated with varied doses of PIM 1 at 1 h, 4 h and 8 h post-infection with PAO1. Positive and negative control groups of mice were injected with 2 mg/kg of imipenem and same volume of PBS respectively, at the same time point. At the 12th hour, all mice were euthanized with peritoneal washes performed via injecting 3.0 mL of PBS into the intraperitoneal cavity followed by massaging the abdomen for 1 min. After which, approximately 1 mL of peritoneal fluid was recovered to calculating the CFU of bacteria, as well as for immune cells quantification. Bacterial loads were also evaluated in the spleen, liver and kidneys of the animals.
For carbapenem-resistant Acinetobacter baumannii (CRAB) and carbapenem-resistant Pseudomonas aeruginosa (CRPA) septicemia protection model, similar procedure was conducted with care and 5% mucin was injected together with the bacteria to have the mice immunocompromised (resulting in similar conditions as hospitalised patients). The amount of bacteria was analysed with one-way classification analysis of variance (ANOVA) and student's t-test (Graphpad Prism for Windows, version 7).

SA29213 = format: cell-based, S. aureus; settings: serial passaging at sub-MIC levels, 21 days
Experimental: Aliquots of the bacteria at various time points were stored in glycerol and kept at −80° C. for further study whenever resistance development was observed. Ofloxacin was used as the positive control.

PAO1 = assay: Mouse septicemia model, survival; format: in vivo; settings: 1 mg/kg IP at 0.5 h, 4 h and 8 h post-infection; monitored over 7 days
Experimental: Given the excellent bacteria killing properties and biocompatibility of PIM 1 chloride, the therapeutic efficacy of this polymer was tested in vivo using a mouse septicemia model (FIG. 13). Balb/c female mice (7 weeks with one week quarantine) were used to test the PAO1 septic shock protection efficacy of PIM 1. Exponential phase of PAO1 was collected and washed twice with PBS, and re-suspended in the same volume of PBS. 300 μL of cell suspension containing 3×10^7 CFU of PAO1 was introduced into each mouse via intraperitoneal injection to induce septic shock. […] The survival rate of the mice was monitored over 7 days.

Compound: C[C@@H](O)[C@H]1C(=O)N2C(C(=O)O)=C(SCCN=CN)C[C@H]12 [imipenem]
- reduction in the population of CRPA in the intraperitoneal fluid (in words) [1]: no reduction
- removal of AB-1 from the peritoneal fluid (in words) [2]: did not show any removal

Compound: CC1COc2c(N3CCN(C)CC3)c(F)cc3c(=O)c(C(=O)O)cn1c23 (stereo not shown) [ofloxacin]
- resistance evolution (SA29213): above 128 MIC fold change

Compound: colistin
- survival rate (PAO1): 80%

— patent publication US11439660B2, “Antimicrobial poly(alkylated imidazolium) salts” (NANYANG TECHNOLOGICAL UNIVERSITY, priority 2017, dated 2022)
